Tested on: Donor 3 GMA T-cell lines (165-B5G, 165-C4G, 165-C5G, 165-E9G, 165-F5G, 165-F10G)
Assay: MHC DR restriction testing (ATP proliferation with autologous and partially HLA-DR matched APC), Donor 3 GMA T-cell lines
Type: cell-based, human
Conditions: 20 μg/mL
Method: MHC DR restriction testing of cell lines was carried out by measuring the proliferation response of the cell lines as described above in the presence of an array of APC selected based on the known HLA-DR loci of the original PBMC donor for the cell line tested, including autologous APC (B-LCL). The donors used are described in Table 2.
To define the MHC molecule used to present antigen to GA specific T cell lines, GA specific responses were measured in the presence of autologous APC and in the presence of APC matching one of the T cell donor's HLA-DR alleles. Therefore at least 3 APC were used in each experiment: autologous APC, APC matching DR allele 1 but not allele 2 and a third APC matching allele 2 but not allele 1. In some experiments a fourth APC B-LCL was used. A no antigen negative control was used. APC were inactivated by incubation with 50 ug/mL mitomycin C. Following inactivation, cells were washed three times to remove mitomycin C and suspended in X-VIVO 15 medium at 1×10^6 cells per mL. GA was added to the cell suspension to a final concentration of 20-60 μg/mL. The cells were incubated with antigen for 1 hour at 37° C. to allow antigen uptake and binding. The cell suspension was then centrifuged to pellet the cells and the cell pellet was washed once with medium. APC were adjusted to 2×10^5 cells per mL in X-VIVO 15 medium and added to opaque 96-well plates at 100 μL per well. T-cell suspensions of 2-4×10^5 cells per mL (unless otherwise specified) were added to the 96-well plates at 100 μL per well and the cultures incubated 4 days before measuring cell numbers using CellTiter Glo® (to evaluate proliferation).
Alternatively, APC were not pulsed. Instead, each well contained 10 ug/mL antigen, 50 μl APC and 100 μL of T cells.
After incubating for 4 days at 37° C. (5% CO2), 100 μL were removed from each well, combined with 100 μL CellTiterGlo reagent, and luminescence was measured using a Packard Fusion. Results were expressed in relative light units (RLU).
As described in the Methods, T-cell lines were tested for MHC restriction by measuring proliferation following incubation with APC. Mitomycin-treated autologous APC, and test APC, e.g., from donors having at least one HLA-DR match with the original PBMC donor were employed. The values in the data tables below are in RLU.
(§1) Donor 3 T-cell line 165-B5G was assayed for proliferation, using mitomycin-treated APC from Donors 3, 5, and 6 that had been incubated in the presence or the absence of 20 μg/mL GMA. T-cell line 165-B5G had been restimulated six times (not including the initial stimulation) with antigen before the MHC restriction assay was carried out. The data, shown in Table 62 and FIG. 9A, indicate that 165-B5G is restricted by HLA-DRβ1*11.
as §1, with “165-C4G” for “165-B5G”, “7” for “6”, “five” for “six”, “63” for “62”, “9B,” for “9A,”
as §1, with “165-05G” for “165-B5G”, “four” for “six”, “64” for “62”, “10A,” for “9A,”, “HLA-DRβ1*1501.” for “HLA-DRβ1*11.”
as §1, with “165-E9G” for “165-B5G”, “four” for “six”, “The data, shown in Table 62 and FIG. 9A, indicate that 165-B5G is restricted by HLA-DRβ1*11.” left out

## glatiramer acetate [GMA]
T-cell line 165-B5G, B-LCL Donor 3 (Autologous) DRβ1*1501/DRβ1*11
  Proliferation with antigen-incubated APC: 4776 RLU
T-cell line 165-B5G, B-LCL Donor 5 DRβ1*01/DRβ1*11
  Proliferation with antigen-incubated APC: 5450 RLU
T-cell line 165-B5G, B-LCL Donor 6 DRβ1*1501/DRβ1*13
  Proliferation with antigen-incubated APC: 2360 RLU
T-cell line 165-C4G, B-LCL Donor 3 (Autologous) DRβ1*1501/DRβ1*11
  Proliferation with antigen-incubated APC: 48711 RLU
T-cell line 165-C4G, B-LCL Donor 5 DRβ1*01/DRβ1*11
  Proliferation with antigen-incubated APC: 41833 RLU
T-cell line 165-C4G, B-LCL Donor 7 DRβ1*1501/DRβ1*03
  Proliferation with antigen-incubated APC: 4870 RLU
T-cell line 165-C5G, B-LCL Donor 3 (Autologous) DRβ1*1501/DRβ1*11
  Proliferation with antigen-incubated APC: 16461 RLU
T-cell line 165-C5G, B-LCL Donor 5 DRβ1*01/DRβ1*11
  Proliferation with antigen-incubated APC: 9825 RLU
T-cell line 165-C5G, B-LCL Donor 6 DRβ1*1501/DRβ1*13
  Proliferation with antigen-incubated APC: 31717 RLU
T-cell line 165-E9G, B-LCL Donor 3 (Autologous) DRβ1*1501/DRβ1*11
  Proliferation with antigen-incubated APC: 5452 RLU
T-cell line 165-E9G, B-LCL Donor 5 DRβ1*01/DRβ1*11
  Proliferation with antigen-incubated APC: 9514 RLU
T-cell line 165-E9G, B-LCL Donor 6 DRβ1*1501/DRβ1*13
  Proliferation with antigen-incubated APC: 1442 RLU
T-cell line 165-F5G, B-LCL Donor 3 (Autologous) DRβ1*1501/DRβ1*11
  Proliferation with antigen-incubated APC: 2862 RLU
T-cell line 165-F5G, B-LCL Donor 5 DRβ1*01/DRβ1*11
  Proliferation with antigen-incubated APC: 3971 RLU
T-cell line 165-F5G, B-LCL Donor 6 DRβ1*1501/DRβ1*13
  Proliferation with antigen-incubated APC: 1424 RLU
T-cell line 165-F10G, B-LCL Donor 3 (Autologous) DRβ1*1501/DRβ1*11
  Proliferation with antigen-incubated APC: 120946 RLU
T-cell line 165-F10G, B-LCL Donor 5 DRβ1*01/DRβ1*11
  Proliferation with antigen-incubated APC: 6221 RLU
T-cell line 165-F10G, B-LCL Donor 7 DRβ1*1501/DRβ1*03
  Proliferation with antigen-incubated APC: 151115 RLU

From US9995734B2, “Human T cell line assay for evaluating the immunologic identity of glatiramer acetate preparations” (Mylan Inc., priority 2013, dated 2018)
